Data published in the supplement of paper PMC9663587.

Legend:
Experiment in all cases: GR value, 72 h; higher = faster growth (1 = untreated, <0 = killing);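 also: breast cancer and non-malignant breast epithelial lines, nine half-log doses, viable cells counted by Hoechst and LIVE/DEAD dye imaging versus time-zero plates and DMSO controls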
Neratinib/HKI272 = compound: CCOc1cc2ncc(C#N)c(Nc3ccc(OCc4ccccn4)c(Cl)c3)c2cc1NC(=O)/C=C/CN(C)C [Neratinib/HKI272]
[1] = compound: CCc1cnn2c(NCc3ccc[n+]([O-])c3)cc(N3CCCC[C@H]3CCO)nc12
LEE011/Ribociclib = compound: CN(C)C(=O)c1cc2cnc(Nc3ccc(N4CCNCC4)cn3)nc2n1C1CCCC1 [LEE011/Ribociclib]
THZ531 = compound: CN(C)C/C=C/C(=O)Nc1ccc(C(=O)N2CCC[C@@H](Nc3ncc(Cl)c(-c4c[nH]c5ccccc45)n3)C2)cc1 [THZ531]
THZ1 = compound: CN(C)C/C=C/C(=O)Nc1ccc(C(=O)Nc2cccc(Nc3ncc(Cl)c(-c4c[nH]c5ccccc45)n3)c2)cc1 [THZ1]
Flavopiridol = compound: CN1CC[C@H](c2c(O)cc(O)c3c(=O)cc(-c4ccccc4Cl)oc23)[C@H](O)C1 [Flavopiridol]

Cell Line HCC1569 has a GR value (Neratinib/HKI272; 0.0003162 µM) of 0.95 GR, a GR value (Neratinib/HKI272; 0.001 µM) of 0.948 GR and a GR value (Neratinib/HKI272; 0.003162 µM) of 0.863 GR. The GR value (Neratinib/HKI272; 0.01 µM) was 0.708 GR, the GR value (Neratinib/HKI272; 0.03162 µM) was 0.612 GR and the GR value (Neratinib/HKI272; 0.1 µM) was 0.537 GR. The GR value (Neratinib/HKI272; 0.3162 µM) was 0.363 GR, the GR value (Neratinib/HKI272; 1 µM) was 0.225 GR and the GR value (Neratinib/HKI272; 3.162 µM) was 0.124 GR. For the same cell line, the GR value ([1]; 0.0001 µM) was 1.03 GR, the GR value ([1]; 0.0003162 µM) was 0.932 GR and the GR value ([1]; 0.001 µM) was 1.06 GR. For the same cell line, the GR value ([1]; 0.003162 µM) was 0.984 GR, the GR value ([1]; 0.01 µM) was 0.928 GR and the GR value ([1]; 0.03162 µM) was -0.0195 GR. For the same cell line, the GR value ([1]; 0.1 µM) was -0.224 GR, the GR value ([1]; 0.3162 µM) was -0.229 GR and the GR value ([1]; 1 µM) was -0.251 GR. The GR value (LEE011/Ribociclib; 0.001 µM) was 1.04 GR, the GR value (LEE011/Ribociclib; 0.003162 µM) was 1.1 GR and the GR value (LEE011/Ribociclib; 0.01 µM) was 1.07 GR. For the same cell line, the GR value (LEE011/Ribociclib; 0.03162 µM) was 0.978 GR, the GR value (LEE011/Ribociclib; 0.1 µM) was 1.09 GR and the GR value (LEE011/Ribociclib; 0.3162 µM) was 0.913 GR. It also gave a GR value (LEE011/Ribociclib; 1 µM) of 1.26 GR, a GR value (LEE011/Ribociclib; 3.162 µM) of 1.32 GR and a GR value (LEE011/Ribociclib; 10 µM) of 0.86 GR. For the same cell line, the GR value (THZ531; 0.0001 µM) was 1.2 GR, the GR value (THZ531; 0.0003162 µM) was 1.02 GR and the GR value (THZ531; 0.001 µM) was 1.03 GR. It also gave a GR value (THZ531; 0.003162 µM) of 1.15 GR, a GR value (THZ531; 0.01 µM) of 1.09 GR and a GR value (THZ531; 0.03162 µM) of 0.907 GR. For the same cell line, the GR value (THZ531; 0.1 µM) was -0.21 GR, the GR value (THZ531; 0.3162 µM) was -0.155 GR and the GR value (THZ531; 1 µM) was 0.0205 GR. It also gave a GR value (THZ1; 0.0001 µM) of 1.16 GR, a GR value (THZ1; 0.0003162 µM) of 1.14 GR and a GR value (THZ1; 0.001 µM) of 1.15 GR. It also gave a GR value (THZ1; 0.003162 µM) of 1.42 GR, a GR value (THZ1; 0.01 µM) of 0.908 GR and a GR value (THZ1; 0.03162 µM) of 0.468 GR. It also gave a GR value (THZ1; 0.1 µM) of -0.112 GR, a GR value (THZ1; 0.3162 µM) of -0.346 GR and a GR value (THZ1; 1 µM) of -0.325 GR. It also gave a GR value (Flavopiridol; 0.0001 µM) of 1.24 GR, a GR value (Flavopiridol; 0.0003162 µM) of 1.13 GR and a GR value (Flavopiridol; 0.001 µM) of 0.828 GR. The GR value (Flavopiridol; 0.003162 µM) was 1.19 GR, the GR value (Flavopiridol; 0.01 µM) was 1.02 GR and the GR value (Flavopiridol; 0.03162 µM) was 0.846 GR. For the same cell line, the GR value (Flavopiridol; 0.1 µM) was 0.422 GR, the GR value (Flavopiridol; 0.3162 µM) was 0.0517 GR and the GR value (Flavopiridol; 1 µM) was -0.284 GR.
